Results reported in ChEMBL document CHEMBL4765312, “Capsaicin derivatives with nitrothiophene substituents: Design, synthesis and antibacterial activity against multidrug-resistant S. aureus” (Eur J Med Chem, 2020).
≈ marks a conversion by molar mass, not a printed value. Calls of active or inactive are those of the source. The calls are words filed in the database; no cut-off is given here.

What was measured:
Staphylococcus aureus [1] = assay: Antibacterial activity against Staphylococcus aureus Newman strain assessed as reduction in bacterial growth incubated for 16 to 18 hrs by two fold serial dilution method; assay type: functional; conditions: time 16-18 hrs
Staphylococcus aureus [2] = assay: Antibacterial activity against multidrug-resistant Staphylococcus aureus NRS1 assessed as reduction in bacterial growth incubated for 16 to 18 hrs by two fold serial dilution method; assay type: functional; conditions: time 16-18 hrs
Staphylococcus aureus [3] = assay: Antibacterial activity against multidrug-resistant Staphylococcus aureus NRS70 assessed as reduction in bacterial growth incubated for 16 to 18 hrs by two fold serial dilution method; assay type: functional; conditions: time 16-18 hrs
Staphylococcus aureus [4] = assay: Antibacterial activity against mutidrug-resistant Staphylococcus aureus NRS100 assessed as reduction in bacterial growth incubated for 16 to 18 hrs by two fold serial dilution method; assay type: functional; conditions: time 16-18 hrs
Staphylococcus aureus [5] = assay: Antibacterial activity against multidrug-resistant Staphylococcus aureus NRS108 assessed as reduction in bacterial growth incubated for 16 to 18 hrs by two-fold serial dilution method; assay type: functional; conditions: time 16-18 hrs
Staphylococcus aureus [6] = assay: Antibacterial activity against multidrug-resistant Staphylococcus aureus NRS271 assessed as reduction in bacterial growth incubated for 16 to 18 hrs by two fold serial dilution method; assay type: functional; conditions: time 16-18 hrs
Staphylococcus aureus [7] = assay: Bactericidal activity against Staphylococcus aureus Newman strain assessed as reduction in bacterial colonies formation after 24 hrs by crystal violet staining based assay; assay type: functional, organism-based
[8] = Cytotoxicity against human HEK293T cells assessed as reduction in cell viability measured after 48 hrs by MTT assay; assay type: cell-based, HEK-293T
Staphylococcus aureus [9] = assay: Antibiofilm activity against Staphylococcus aureus Newman strain assessed as biofilm formation at 0.78 ug/ml after 24 hrs by crystal violet staining based assay relative to control; assay type: functional; conditions: dose 0.78 µg/ml
Staphylococcus aureus [10] = assay: Potency index, ratio of vancomycin MIC to test compound MIC for antibacterial activity against multidrug-resistant Staphylococcus aureus NRS1 assessed as reduction in bacterial growth incubated for 16 to 18 hrs by two fold serial dilution method; assay type: functional; conditions: time 16-18 hrs
Staphylococcus aureus [11] = assay: Potency index, ratio of vancomycin MIC to test compound MIC for antibacterial activity against multidrug-resistant Staphylococcus aureus NRS70 assessed as reduction in bacterial growth incubated for 16 to 18 hrs by two fold serial dilution method; assay type: functional; conditions: time 16-18 hrs
Staphylococcus aureus [12] = assay: Potency index, ratio of vancomycin MIC to test compound MIC for antibacterial activity against mutidrug-resistant Staphylococcus aureus NRS100 assessed as reduction in bacterial growth incubated for 16 to 18 hrs by two fold serial dilution method; assay type: functional; conditions: time 16-18 hrs
Staphylococcus aureus [13] = assay: Potency index, ratio of vancomycin MIC to test compound MIC for antibacterial activity against multidrug-resistant Staphylococcus aureus NRS108 assessed as reduction in bacterial growth incubated for 16 to 18 hrs by two-fold serial dilution method; assay type: functional; conditions: time 16-18 hrs
Staphylococcus aureus [14] = assay: Potency index, ratio of vancomycin MIC to test compound MIC for antibacterial activity against multidrug-resistant Staphylococcus aureus NRS271 assessed as reduction in bacterial growth incubated for 16 to 18 hrs by two fold serial dilution method; assay type: functional; conditions: time 16-18 hrs

Structure (SMILES): O=C(Nc1ccc([N+](=O)[O-])s1)c1ccc(CNC(=O)c2ccc([N+](=O)[O-])s2)cc1
- MIC (Staphylococcus aureus [1]): > 50 µg/mL

Structure (SMILES): NC[C@H]1O[C@H](O[C@H]2[C@H](O)[C@@H](O[C@H]3O[C@H](CO)[C@@H](O)[C@H](N)[C@H]3O)[C@H](N)C[C@@H]2N)[C@H](O)[C@@H](O)[C@@H]1O [KANAMYCIN]
- MIC (Staphylococcus aureus [1]): 3.13 µg/mL (≈ 6.46 µM)
- MIC (Staphylococcus aureus [2]): > 50 µg/mL
- MIC (Staphylococcus aureus [3]): > 50 µg/mL
- MIC (Staphylococcus aureus [4]): 1.56 µg/mL (≈ 3.22 µM)
- MIC (Staphylococcus aureus [5]): > 50 µg/mL
- MIC (Staphylococcus aureus [6]): 3.13 µg/mL (≈ 6.46 µM)

Structure (SMILES): CN[C@H](CC(C)C)C(=O)N[C@H]1C(=O)N[C@@H](CC(N)=O)C(=O)N[C@H]2C(=O)N[C@H]3C(=O)N[C@H](C(=O)N[C@H](C(=O)O)c4cc(O)cc(O)c4-c4cc3ccc4O)[C@H](O)c3ccc(c(Cl)c3)Oc3cc2cc(c3O[C@@H]2O[C@H](CO)[C@@H](O)[C@H](O)[C@H]2O[C@H]2C[C@](C)(N)[C@H](O)[C@H](C)O2)Oc2ccc(cc2Cl)[C@H]1O [VANCOMYCIN]
- MIC (Staphylococcus aureus [1]): 0.78 µg/mL (≈ 0.538 µM)
- MIC (Staphylococcus aureus [2]): 1.56 µg/mL (≈ 1.08 µM)
- MIC (Staphylococcus aureus [3]): 0.39 µg/mL (≈ 0.269 µM)
- MIC (Staphylococcus aureus [4]): 0.78 µg/mL (≈ 0.538 µM)
- MIC (Staphylococcus aureus [5]): 0.78 µg/mL (≈ 0.538 µM)
- MIC (Staphylococcus aureus [6]): 0.78 µg/mL (≈ 0.538 µM)
- Activity (Staphylococcus aureus [7]): inactive

Structure (SMILES): COc1cc(CNC(=O)CCCC/C=C/C(C)C)ccc1O [CAPSAICIN]
- MIC (Staphylococcus aureus [1]): > 50 µg/mL

Structure (SMILES): O=C(NCc1ccc(OC(=O)c2ccc([N+](=O)[O-])s2)c(Br)c1)c1ccc([N+](=O)[O-])s1
- MIC (Staphylococcus aureus [1]): 6.25 µg/mL (≈ 12.2 µM)

Structure (SMILES): COc1cc(CNC(=O)c2ccc([N+](=O)[O-])o2)ccc1OC(=O)c1ccc([N+](=O)[O-])s1
- MIC (Staphylococcus aureus [1]): 3.13 µg/mL (≈ 7 µM)

Structure (SMILES): O=C(NCc1ccc(NC(=O)c2ccc([N+](=O)[O-])s2)cc1)c1ccc([N+](=O)[O-])s1
- MIC (Staphylococcus aureus [1]): > 50 µg/mL

Structure (SMILES): COc1cc(CNC(=O)c2ccc([N+](=O)[O-])s2)ccc1OC(=O)c1ccc([N+](=O)[O-])o1
- MIC (Staphylococcus aureus [1]): 6.25 µg/mL (≈ 14 µM)

Structure (SMILES): O=C(NCc1ccc(-c2noc(-c3ccc([N+](=O)[O-])s3)n2)cc1)c1ccc([N+](=O)[O-])s1
- MIC (Staphylococcus aureus [1]): 0.78 µg/mL (≈ 1.71 µM)
- MIC (Staphylococcus aureus [2]): 0.39 µg/mL (≈ 0.853 µM)
- MIC (Staphylococcus aureus [3]): 0.2 µg/mL (≈ 0.437 µM)
- MIC (Staphylococcus aureus [4]): 0.39 µg/mL (≈ 0.853 µM)
- MIC (Staphylococcus aureus [5]): 0.2 µg/mL (≈ 0.437 µM)
- MIC (Staphylococcus aureus [6]): 0.2 µg/mL (≈ 0.437 µM)
- CC50 at 48 h [8]: 126 µg/mL (≈ 276 µM)
- Activity (Staphylococcus aureus [9]): 80%
- Activity (Staphylococcus aureus [7]): Active
- Ratio (Staphylococcus aureus [10]): 2
- Ratio (Staphylococcus aureus [11]): 2
- Ratio (Staphylococcus aureus [12]): 2
- Ratio (Staphylococcus aureus [13]): 2
- Ratio (Staphylococcus aureus [14]): 2

Structure (SMILES): COc1cc(CNC(=O)c2cccc([N+](=O)[O-])c2)ccc1OC(=O)c1ccc([N+](=O)[O-])s1
- MIC (Staphylococcus aureus [1]): > 50 µg/mL

Structure (SMILES): COc1cc(CNC(=O)/C=C/c2ccc([N+](=O)[O-])s2)ccc1OC(=O)c1ccc([N+](=O)[O-])s1
- MIC (Staphylococcus aureus [1]): > 50 µg/mL

Structure (SMILES): O=C(NCc1ccc(OC(=O)c2ccc([N+](=O)[O-])s2)c(F)c1)c1ccc([N+](=O)[O-])s1
- MIC (Staphylococcus aureus [1]): 3.13 µg/mL (≈ 6.93 µM)

Structure (SMILES): O=C(NCc1ccc(OC(=O)c2ccc([N+](=O)[O-])s2)cc1)c1ccc([N+](=O)[O-])s1
- MIC (Staphylococcus aureus [1]): 0.78 µg/mL (≈ 1.8 µM)
- MIC (Staphylococcus aureus [2]): 0.78 µg/mL (≈ 1.8 µM)
- MIC (Staphylococcus aureus [3]): 0.78 µg/mL (≈ 1.8 µM)
- MIC (Staphylococcus aureus [4]): 3.13 µg/mL (≈ 7.22 µM)
- MIC (Staphylococcus aureus [5]): 3.13 µg/mL (≈ 7.22 µM)
- MIC (Staphylococcus aureus [6]): 1.56 µg/mL (≈ 3.6 µM)
- CC50 at 48 h [8]: 251 µg/mL (≈ 579 µM)

Structure (SMILES): CN(Cc1ccc(N(C)C(=O)c2ccc([N+](=O)[O-])s2)cc1)C(=O)c1ccc([N+](=O)[O-])s1
- MIC (Staphylococcus aureus [1]): 6.25 µg/mL (≈ 13.6 µM)

Structure (SMILES): COc1cc(OC(=O)c2ccc([N+](=O)[O-])s2)ccc1CNC(=O)c1ccc([N+](=O)[O-])s1
- MIC (Staphylococcus aureus [1]): 1.56 µg/mL (≈ 3.37 µM)
- MIC (Staphylococcus aureus [2]): 0.78 µg/mL (≈ 1.68 µM)
- MIC (Staphylococcus aureus [3]): 0.78 µg/mL (≈ 1.68 µM)
- MIC (Staphylococcus aureus [4]): 0.78 µg/mL (≈ 1.68 µM)
- MIC (Staphylococcus aureus [5]): 1.56 µg/mL (≈ 3.37 µM)
- MIC (Staphylococcus aureus [6]): 0.78 µg/mL (≈ 1.68 µM)

Structure (SMILES): COc1cc(CNC(=O)c2ncc([N+](=O)[O-])n2C)ccc1OC(=O)c1ccc([N+](=O)[O-])s1
- MIC (Staphylococcus aureus [1]): > 50 µg/mL

Structure (SMILES): COc1cc(CNC(=O)c2ccc([N+](=O)[O-])s2)ccc1OC(=O)/C=C/c1ccc([N+](=O)[O-])s1
- MIC (Staphylococcus aureus [1]): > 50 µg/mL

Structure (SMILES): COc1cc(CNC(=O)c2ccc([N+](=O)[O-])s2)ccc1O
- MIC (Staphylococcus aureus [1]): > 50 µg/mL

Structure (SMILES): O=C(NCc1ccc(OC(=O)c2ccc([N+](=O)[O-])s2)c([N+](=O)[O-])c1)c1ccc([N+](=O)[O-])s1
- MIC (Staphylococcus aureus [1]): 6.25 µg/mL (≈ 13.1 µM)

Structure (SMILES): COc1cc(CNC(=O)c2ccc([N+](=O)[O-])s2)ccc1OC(=O)c1cccc([N+](=O)[O-])c1
- MIC (Staphylococcus aureus [1]): > 50 µg/mL

Structure (SMILES): O=C(NCc1ccc(OC(=O)c2ccc([N+](=O)[O-])s2)c(Cl)c1)c1ccc([N+](=O)[O-])s1
- MIC (Staphylococcus aureus [1]): 0.78 µg/mL (≈ 1.67 µM)
- MIC (Staphylococcus aureus [2]): 0.78 µg/mL (≈ 1.67 µM)
- MIC (Staphylococcus aureus [3]): 0.39 µg/mL (≈ 0.834 µM)
- MIC (Staphylococcus aureus [4]): 3.13 µg/mL (≈ 6.69 µM)
- MIC (Staphylococcus aureus [5]): 1.56 µg/mL (≈ 3.33 µM)
- MIC (Staphylococcus aureus [6]): 1.56 µg/mL (≈ 3.33 µM)

Structure (SMILES): COc1cc(CNC(=O)c2ccc([N+](=O)[O-])s2)ccc1OC(=O)c1ccc([N+](=O)[O-])s1
- MIC (Staphylococcus aureus [1]): 1.56 µg/mL (≈ 3.37 µM)
- MIC (Staphylococcus aureus [2]): 0.78 µg/mL (≈ 1.68 µM)
- MIC (Staphylococcus aureus [3]): 0.78 µg/mL (≈ 1.68 µM)
- MIC (Staphylococcus aureus [4]): 0.78 µg/mL (≈ 1.68 µM)
- MIC (Staphylococcus aureus [5]): 1.56 µg/mL (≈ 3.37 µM)
- MIC (Staphylococcus aureus [6]): 0.78 µg/mL (≈ 1.68 µM)
- CC50 at 48 h [8]: 61 µg/mL (≈ 132 µM)

Structure (SMILES): O=C(NCc1ccc(Oc2ccc([N+](=O)[O-])s2)cc1)c1ccc([N+](=O)[O-])s1
- MIC (Staphylococcus aureus [1]): 3.13 µg/mL (≈ 7.72 µM)

Structure (SMILES): COc1cc(CNC(=O)c2cccs2)ccc1OC(=O)c1ccc([N+](=O)[O-])s1
- MIC (Staphylococcus aureus [1]): > 50 µg/mL

Structure (SMILES): O=C(NCc1ccc(OC(=O)c2ccc([N+](=O)[O-])s2)c(C(F)(F)F)c1)c1ccc([N+](=O)[O-])s1
- MIC (Staphylococcus aureus [1]): 3.13 µg/mL (≈ 6.24 µM)

Structure (SMILES): COc1cc(CNC(=O)c2ccc([N+](=O)[O-])s2)ccc1OC(=O)c1ncc([N+](=O)[O-])n1C
- MIC (Staphylococcus aureus [1]): > 50 µg/mL

Structure (SMILES): Cc1cc(CNC(=O)c2ccc([N+](=O)[O-])s2)ccc1OC(=O)c1ccc([N+](=O)[O-])s1
- MIC (Staphylococcus aureus [1]): 0.39 µg/mL (≈ 0.872 µM)
- MIC (Staphylococcus aureus [2]): 0.39 µg/mL (≈ 0.872 µM)
- MIC (Staphylococcus aureus [3]): 0.39 µg/mL (≈ 0.872 µM)
- MIC (Staphylococcus aureus [4]): 0.39 µg/mL (≈ 0.872 µM)
- MIC (Staphylococcus aureus [5]): 1.56 µg/mL (≈ 3.49 µM)
- MIC (Staphylococcus aureus [6]): 0.39 µg/mL (≈ 0.872 µM)
- CC50 at 48 h [8]: 168 µg/mL (≈ 375 µM)

Structure (SMILES): COc1cc(CNC(=O)c2ccc([N+](=O)[O-])s2)ccc1OC(=O)c1cccs1
- MIC (Staphylococcus aureus [1]): > 50 µg/mL

Structure (SMILES): COc1cc(CNC(=O)c2ccc([N+](=O)[O-])o2)ccc1OC(=O)c1ccc([N+](=O)[O-])o1
- MIC (Staphylococcus aureus [1]): 3.13 µg/mL (≈ 7.26 µM)

Structure (SMILES): COc1cc(CNC(=O)c2ccc([N+](=O)[O-])s2)cc(OC)c1OC(=O)c1ccc([N+](=O)[O-])s1
- MIC (Staphylococcus aureus [1]): 3.13 µg/mL (≈ 6.34 µM)

Structure (SMILES): CCCCCCCCCC(=O)NCc1ccc(OC(=O)c2ccc([N+](=O)[O-])s2)c(OC)c1
- MIC (Staphylococcus aureus [1]): > 50 µg/mL
